Assay results as given in patent publication US9663495B2 (YUHAN CORPORATION, priority 2013, dated 2017).

Experiments:
[1] = target: T1, GPR119 (Homo sapiens, UniProt Q8TDV5); assay: cAMP Accumulation Assay (GPR119 CRE-bla CHO-K1 cells, LiveBLAzer-FRET B/G); type: cell-based; conditions: for EC50: 5 hours incubation; for Emax (Fold): maximum activity, response ratio versus non-treated control group
T1 construct: host or cells: CHO-K1 (GPR119 CRE-bla, doxycycline-induced)
T1 sequence (Q8TDV5 1-335): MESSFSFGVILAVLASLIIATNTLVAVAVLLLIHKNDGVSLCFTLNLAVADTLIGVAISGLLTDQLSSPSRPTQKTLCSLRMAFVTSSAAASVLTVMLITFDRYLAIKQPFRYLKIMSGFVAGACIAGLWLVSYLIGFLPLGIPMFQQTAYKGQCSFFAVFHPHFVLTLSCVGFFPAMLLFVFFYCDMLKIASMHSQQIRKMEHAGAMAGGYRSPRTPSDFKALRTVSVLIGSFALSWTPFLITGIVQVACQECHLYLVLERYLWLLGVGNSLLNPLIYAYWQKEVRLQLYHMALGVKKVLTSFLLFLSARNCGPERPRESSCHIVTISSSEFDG

[2] = target: T1, GPR119; assay: as above; type: cell-based; conditions: (Emax of the test compound/Emax of MBX-2982)x100, 5 hours incubation
[3] = test system: male C57BL/6 mice; assay: Oral Glucose Tolerance Test (OGTT); type: in vivo; set-up: concentration or dose not given beside the values; conditions: fasted male C57BL/6 mice, oral administration 30 minutes before oral glucose; AUCglucose 0-120 minutes versus negative control group
Protocol: The oral glucose tolerance test of the compounds according to the present invention was carried out according to the procedures disclosed in Andrikopoulos S, Blair A R, Deluca N, Fam B C, Proietto J, Am J Physiol Endocrinol Metab. 2008, Vol 295, E1323-1332. Briefly, male C57BL/6 mice at 8 to 9 weeks of age having 20 g to 25 g of body weight (Orient Bio Inc. Korea) were allowed to acclimatize to the surroundings (temperature: 20±2° C., humidity: 40-60%, light/dark cycle: 12 hours) for 1 week. During the acclimatization, the mice were given ad libitum access to feed and water. The mice were fasted from 18 hours before the test, except for allowing free access to water. After measuring the mice′ body weights and blood sugar levels, they were divided into test groups so as to have similar blood sugar levels. The mice were orally administered with a mixture of test compound and the diluent (0.5% solution of MC1500 (Sigma)). At 30 minutes after the administration, the mice were also orally administered with 20% glucose solution in an amount of 0.1 ml per 10 g of body weight. The blood samples were taken from the tail vain at 0 (right before the administration of the glucose solution), 15, 30, 60, 90, and 120 minutes after the administration of the glucose solution; and the blood sugar levels thereof were measured with a blood glucose test meter (GlucoDr. AGM-3000, All Medicus Co. Ltd.). The graph for blood sugar level on time for each test compound was plotted from the respective blood sugar values; and then area under the curve (AUCglucose) was determined. The inhibition rate of blood sugar (%) was calculated from the following formula. Inhibition rate of blood sugar (%)=[(AUCglucose of the negative control group−AUCglucose of the test group)/AUCglucose of the negative control group]×100

| SMILES | EC50 [1] [nM] | Emax (Fold) [1] [Fold] | Emax (% RR) [2] [% RR] | Inhibition rate of blood sugar (%) [3] [%] |
| --- | --- | --- | --- | --- |
| CCc1cnc(N2CCN(c3ncc(-c4ccc(-n5cnn(CCN)c5=O)c(F)c4)cc3C#N)[C@@H](C)C2)nc1.Cl [Example 17, (S)-5-(4-(1-(2-aminoethyl)-5-oxo-1H-1,2,4-triazol-4(5H)-yl)-3-fluorophenyl)-2-(4-(5-ethylpyrimidin-2-yl)-2-methylpiperazin-1-yl)nicotinonitrile hydrochloride] | 8.2 | 3.2 | 115.1 | 18.2 |
| CCc1cnc(N2CCN(c3ncc(-c4ccc(-n5cnn([C@@H]6CCOC6)c5=O)c(F)c4)cc3C#N)CC2)nc1 [Example 33, (R)-2-(4-(5-ethylpyrimidin-2-yl)piperazin-1-yl)-5-(3-fluoro-4-(5-oxo-1-(tetrahydrofuran-3-yl)-1H-1,2,4-triazol-4(5H)-yl)phenyl)nicotinonitrile] | 4.4 | 4.0 | 125.7 | 20.9 |
| CCc1cnc(N2CCN(c3ncc(-c4ccc(-n5cnn([C@@H]6CCNC6)c5=O)c(F)c4)cc3C#N)CC2)nc1 [Example 34, (R)-2-(4-(5-ethylpyrimidin-2-yl)piperazin-1-yl)-5-(3-fluoro-4-(5-oxo-1-(pyrrolidin-3-yl)-1H-1,2,4-triazol-4(5H)-yl)phenyl)nicotinonitrile] | 8.4 | 3.2 | 113.8 | 25.1 |
| CCc1cnc(N2CCN(c3ncc(-c4ccc(-n5cnn(CC(=O)N6CCCC6)c5=O)c(F)c4)cc3C#N)CC2)nc1 [Example 37, 2-(4-(5-ethylpyrimidin-2-yl)piperazin-1-yl)-5-(3-fluoro-4-(5-oxo-1-(2-oxo-2-(pyrrolidin-1-yl)ethyl)-1H-1,2,4-triazol-4(5H)-yl)phenyl)nicotinonitrile] | 3.2 | 3.1 | 110.0 | 16.5 |
| CCc1cnc(N2CCN(c3ncc(-c4ccc(-n5cnn(CCOC)c5=O)cc4)cc3C#N)CC2)nc1 [Example 40, 2-(4-(5-ethylpyrimidin-2-yl)piperazin-1-yl)-5-(4-(1-(2-methoxyethyl)-5-oxo-1H-1,2,4-triazol-4(5H)-yl)phenyl)nicotinonitrile] | 9 | 3.1 | 112.1 | 17.2 |
| CCc1cnc(N2CCN(c3ncc(-c4ccc(-n5cnn([C@@H]6CCOC6)c5=O)cc4)cc3C#N)CC2)nc1 [Example 41, (R)-2-(4-(5-ethylpyrimidin-2-yl)piperazin-1-yl)-5-(4-(5-oxo-1-(tetrahydrofuran-3-yl)-1H-1,2,4-triazol-4(5H)-yl)phenyl)nicotinonitrile] | 5 | 3.1 | 113.4 | 18.8 |
| CCc1cnc(N2CCN(c3ncc(-c4ccc(-n5cnn(C(C)C)c5=O)c(F)c4)cc3C#N)CC2)nc1.Cl [Example 43, 2-(4-(5-ethylpyrimidin-2-yl)piperazin-1-yl)-5-(3-fluoro-4-(1-isopropyl-5-oxo-1H-1,2,4-triazol-4(5H)-yl)phenyl)nicotinonitrile hydrochloride] | – | 3.8 | 130.9 | 25.2 |
| CC(C)c1nc(N2CCN(c3ncc(-c4ccc(-n5cnn([C@H]6CCOC6)c5=O)c(F)c4)cc3C#N)CC2)no1 [Example 47, (S)-5-(3-fluoro-4-(5-oxo-1-(tetrahydrofuran-3-yl)-1H-1,2,4-triazol-4(5H)-yl)phenyl)-2-(4-(5-isopropyl-1,2,4-oxadiazol-3-yl)piperazin-1-yl)nicotinonitrile] | 12 | 3.2 | 141.6 | 32.7 |
| COCCn1ncn(-c2ccc(-c3cnc(N4CCC(c5noc(C(C)C)n5)CC4)c(C#N)c3)cc2)c1=O [Example 69, 2-(4-(5-isopropyl-1,2,4-oxadiazol-3-yl)piperidin-1-yl)-5-(4-(1-(2-methoxyethyl)-5-oxo-1H-1,2,4-triazol-4(5H)-yl)phenyl)nicotinonitrile] | 16 | 3.7 | 126.7 | 25.8 |
| CC(C)c1nc(C2CCN(c3ncc(-c4ccc(-n5cnn([C@@H]6CCOC6)c5=O)cc4)cc3C#N)CC2)no1 [Example 70, (R)-2-(4-(5-isopropyl-1,2,4-oxadiazol-3-yl)piperidin-1-yl)-5-(4-(5-oxo-1-(tetrahydrofuran-3-yl)-1H-1,2,4-triazol-4(5H)-yl)phenyl)nicotinonitrile] | 36 | 3.5 | 120.0 | 25.2 |
| CC(C)c1nc(C2CCN(c3ncc(-c4ccc(-n5cnn([C@H]6CCOC6)c5=O)cc4)cc3C#N)CC2)no1 [Example 71, (S)-2-(4-(5-isopropyl-1,2,4-oxadiazol-3-yl)piperidin-1-yl)-5-(4-(5-oxo-1-(tetrahydrofuran-3-yl)-1H-1,2,4-triazol-4(5H)-yl)phenyl)nicotinonitrile] | 9.8 | 3.8 | 127.3 | 20.4 |
